From paper PMC5431190, “Investigation of cationicity and structure of pseudin-2 analogues for enhanced bacterial selectivity and anti-inflammatory activity” (Scientific Reports, 2017)
Converted amounts (≈) assume the structure as drawn. Read-outs that look alike come from different tables or passages of the source. Residues, ends and D or L forms follow the SMILES beside them.

What was measured:
[1] = test system: S. aureus 3108(R) (MRSA 3108); format: cell-based, Staphylococcus aureus; details: multidrug-resistant strain; 1% peptone media, 16 h at 37 °C
[2] = test system: Staphylococcus aureus KCTC 1621; format: cell-based
Excerpt: (§1) Four Gram-negative bacteria species (Escherichia coli KCTC 1682, Acinetobacter baumannii KCTC 2508, Pseudomonas aeruginosa KCTC 1637 and Salmonella typhimurium KCTC 1926) and three Gram-positive bacteria species (Staphylococcus aureus KCTC 1621, Bacillus subtilis KCTC 3028 and Staphylococcus epidermidis KCTC 1917) were procured from the Korean Collection for Type Cultures (KCTC). Multi-drug-resistant Gram-negative bacteria (Salmonella typhimurium CCARM 8003 and 8007, Escherichia coli CCARM 1229 and 1238, Pseudomonas aeruginosa CCARM 2002 and 2095 and Acinetobacter baumannii CCARM 12035 and 12036) were obtained from the Culture Collection of Antibiotic-Resistant Microbes (CCARM). To determine MICs, bacteria were cultured in Luria-Bertani (LB) medium for overnight at 37 °C. An aliquot of the culture was incubated in 1% peptone media at 37 °C until mid-log phase. 100 μl of serial 2-fold diluted peptides were treated in 96 well plates and added to 100 μl of 2 × 10^6 CFU/ml bacterial suspensions in 1% peptone media for 16 h at 37 °C.

[3] = test system: Bacillus subtilis KCTC 3028; format: cell-based
Excerpt: as §1

[4] = test system: Escherichia coli CCARM 1238 (MDREC 1238); format: cell-based; details: multidrug-resistant strain; 1% peptone media, 16 h at 37 °C
Excerpt: as §1

[5] = test system: Pseudomonas aeruginosa CCARM 2002 (MDRPA 2002); format: cell-based; details: multidrug-resistant strain; 1% peptone media, 16 h at 37 °C
Excerpt: as §1

[6] = test system: Staphylococcus epidermidis KCTC 1917; format: cell-based
Excerpt: as §1

[7] = test system: Salmonella typhimurium CCARM 8003 (MDRST 8003); format: cell-based; details: multidrug-resistant strain; 1% peptone media, 16 h at 37 °C
Excerpt: as §1

[8] = test system: Pseudomonas aeruginosa KCTC 1637; format: cell-based
Excerpt: as §1

[9] = test system: Salmonella typhimurium KCTC 1926; format: cell-based
Excerpt: as §1

[10] = test system: Acinetobacter baumannii CCARM 12035 (MDRAB 12035); format: cell-based; details: multidrug-resistant strain; 1% peptone media, 16 h at 37 °C
Excerpt: as §1

[11] = test system: Pseudomonas aeruginosa CCARM 2095 (MDRPA 2095); format: cell-based; details: multidrug-resistant strain; 1% peptone media, 16 h at 37 °C
Excerpt: as §1

[12] = test system: Gram-negative bacteria (E. coli, A. baumannii, P. aeruginosa, S. typhimurium); format: cell-based
Excerpt: as §1

[13] = test system: Acinetobacter baumannii KCTC 2508; format: cell-based
Excerpt: as §1

[14] = test system: Escherichia coli CCARM 1229 (MDREC 1229); format: cell-based; details: multidrug-resistant strain; 1% peptone media, 16 h at 37 °C
Excerpt: as §1

[15] = test system: Gram-positive bacteria (S. aureus, B. subtilis, S. epidermidis); format: cell-based
Excerpt: as §1

[16] = test system: Escherichia coli KCTC 1682; format: cell-based
Excerpt: as §1

[17] = test system: Acinetobacter baumannii CCARM 12036 (MDRAB 12036); format: cell-based; details: multidrug-resistant strain; 1% peptone media, 16 h at 37 °C
Excerpt: as §1

[18] = test system: Salmonella typhimurium CCARM 8007 (MDRST 8007); format: cell-based; details: multidrug-resistant strain; 1% peptone media, 16 h at 37 °C
Excerpt: as §1

[19] = test system: S. aureus 3089(R) (MRSA 3089); format: cell-based, Staphylococcus aureus; details: multidrug-resistant strain; 1% peptone media, 16 h at 37 °C
[20] = test system: human red blood cells (hRBCs); test: Haemolytic activity; format: cell-based
Experimental: Peptide-induced lysis of human red blood cells (hRBCs) was determined as follows. Fresh hRBCs were washed 2–3 times with phosphate-buffered saline (PBS) by centrifugation for 5 min at 2500 rpm at 4 °C. Peptides in PBS were incubated with 4% (v/v) hRBCs for 1 h at 37 °C. Samples were then centrifuged for 5 min at 1000 × g. The absorbance of the supernatant at 405 nm was used as a measure of haemolysis. As a positive control, 100% haemolysis was obtained by treating hRBCs with 0.1% Triton X-100.

[21] = test system: S. aureus 3126(R) (MRSA 3126); format: cell-based, Staphylococcus aureus; details: multidrug-resistant strain; 1% peptone media, 16 h at 37 °C

| SMILES | MIC, MRSA 3108 [1] [µM] | MIC, MDREC 1238 [4] [µM] | MIC, MDRPA 2002 [5] [µM] | MIC, MDRST 8003 [7] [µM] | MIC, MDRAB 12035 [10] [µM] | MIC, MDRPA 2095 [11] [µM] | MIC, MDREC 1229 [14] [µM] | MIC, MDRAB 12036 [17] [µM] | MIC, MDRST 8007 [18] [µM] | MIC, MRSA 3089 [19] [µM] | MIC, MRSA 3126 [21] [µM] | other results |
| --- | --- | --- | --- | --- | --- | --- | --- | --- | --- | --- | --- | --- |
| CC[C@H](C)[C@H](NC(=O)CNC(=O)[C@H](CCC(N)=O)NC(=O)[C@H](Cc1ccccc1)NC(=O)[C@@H](NC(=O)[C@H](CCCCN)NC(=O)[C@H](CCCCN)NC(=O)[C@H](CC(C)C)NC(=O)[C@H](C)NC(=O)[C@H](CC(N)=O)NC(=O)[C@H](CC(C)C)NC(=O)CN)C(C)C)C(=O)N[C@@H](Cc1c[nH]cn1)C(=O)N[C@@H](CCCCN)C(=O)N[C@@H](C)C(=O)N[C@H](C(=O)N[C@@H](CCCCN)C(=O)N[C@@H](CCCCN)C(=O)N[C@H](C(=O)N[C@@H](CC(N)=O)C(=O)N[C@@H](CC(N)=O)C(=O)N[C@@H](Cc1c[nH]cn1)C(=O)N[C@H](C(=O)N[C@@H](CCC(N)=O)C(=O)O)C(C)C)[C@@H](C)CC)[C@@H](C)CC [Ps-K14-K18] (H-GLNALKKVFQGIHKAIKKINNHVQ-OH) | 4 (≈ 10.8 µg/mL) | 2 (≈ 5.4 µg/mL) | 2 (≈ 5.4 µg/mL) | 4 (≈ 10.8 µg/mL) | 2 (≈ 5.4 µg/mL) | 4 (≈ 10.8 µg/mL) | 2 (≈ 5.4 µg/mL) | 2 (≈ 5.4 µg/mL) | 4 (≈ 10.8 µg/mL) | 8 (≈ 21.6 µg/mL) | 4 (≈ 10.8 µg/mL) | MIC, S. aureus ([2]; KCTC 1621, 16 h): 8 µM (≈ 21.6 µg/mL); MIC, B. subtilis ([3]; KCTC 3028, 16 h): 8 µM (≈ 21.6 µg/mL); MIC, S. epidermidis ([6]; KCTC 1917, 16 h): 16 µM (≈ 43.2 µg/mL); MIC, P. aeruginosa ([8]; KCTC 1637, 16 h): 2 µM (≈ 5.4 µg/mL); MIC, S. typhimurium ([9]; KCTC 1926, 16 h): 2 µM (≈ 5.4 µg/mL); Average MIC, Gram-negative ([12]; 16 h): 1.75 µM; MIC, A. baumannii ([13]; KCTC 2508, 16 h): 2 µM (≈ 5.4 µg/mL); Average MIC, Gram-positive ([15]; 16 h): 10.67 µM; MIC, E. coli ([16]; KCTC 1682, 16 h): 1 µM (≈ 2.7 µg/mL); MHC (minimal peptide concentration that produces haemolysis) ([20]; red cells of human, 1 h): 100 µM; haemolysis at 100 μM ([20]; red cells of human, 1 h, 100): 1.1% |
| CC[C@H](C)[C@H](NC(=O)[C@H](C)NC(=O)[C@H](CCC(=O)O)NC(=O)[C@H](Cc1c[nH]cn1)NC(=O)[C@@H](NC(=O)[C@@H]1CCCN1C(=O)[C@H](CCC(N)=O)NC(=O)[C@H](Cc1ccccc1)NC(=O)[C@@H](NC(=O)[C@H](CCCCN)NC(=O)[C@H](CCCCN)NC(=O)[C@H](CC(C)C)NC(=O)[C@H](C)NC(=O)[C@H](CC(N)=O)NC(=O)[C@H](CC(C)C)NC(=O)CN)C(C)C)[C@@H](C)CC)C(=O)N[C@@H](CCCCN)C(=O)N[C@@H](CCCCN)C(=O)N[C@H](C(=O)N[C@@H](CC(N)=O)C(=O)N[C@@H](CC(N)=O)C(=O)N[C@@H](Cc1c[nH]cn1)C(=O)N[C@H](C(=O)N[C@@H](CCC(N)=O)C(=O)O)C(C)C)[C@@H](C)CC [Ps-K18-P] (H-GLNALKKVFQPIHEAIKKINNHVQ-OH) | 64 (≈ 175 µg/mL) | 16 (≈ 43.8 µg/mL) | 16 (≈ 43.8 µg/mL) | 16 (≈ 43.8 µg/mL) | 16 (≈ 43.8 µg/mL) | 16 (≈ 43.8 µg/mL) | 32 (≈ 87.7 µg/mL) | 16 (≈ 43.8 µg/mL) | 16 (≈ 43.8 µg/mL) | 64 (≈ 175 µg/mL) | >64 | MIC, S. aureus ([2]; standard strain KCTC 1621, 1% peptone media, 16 h at 37 °C, three independent experiments in triplicate, SD 14.0%): 64 µM (≈ 175 µg/mL); MIC, B. subtilis ([3]; standard strain KCTC 3028, 1% peptone media, 16 h at 37 °C, three independent experiments in triplicate, SD 14.0%): 64 µM (≈ 175 µg/mL); MIC, S. epidermidis ([6]; standard strain KCTC 1917, 1% peptone media, 16 h at 37 °C, three independent experiments in triplicate, SD 14.0%): 64 µM (≈ 175 µg/mL); MIC, P. aeruginosa ([8]; standard strain KCTC 1637, 1% peptone media, 16 h at 37 °C, three independent experiments in triplicate, SD 14.0%): 8 µM (≈ 21.9 µg/mL); MIC, S. typhimurium ([9]; standard strain KCTC 1926, 1% peptone media, 16 h at 37 °C, three independent experiments in triplicate, SD 14.0%): 16 µM (≈ 43.8 µg/mL); Average MIC, Gram-negative ([12]; average over the four Gram-negative standard strains): 14 µM; MIC, A. baumannii ([13]; standard strain KCTC 2508, 1% peptone media, 16 h at 37 °C, three independent experiments in triplicate, SD 14.0%): 16 µM (≈ 43.8 µg/mL); Average MIC, Gram-positive ([15]; average over the three Gram-positive standard strains): 64 µM; MIC, E. coli ([16]; standard strain KCTC 1682, 2-fold dilutions, 1% peptone media, 2 × 10^6 CFU/ml suspension, 16 h at 37 °C, three independent experiments in triplicate, SD 14.0%): 16 µM (≈ 43.8 µg/mL); haemolysis at 400 μM ([20]; 400 μM peptide, 4% hRBCs, PBS, 1 h at 37 °C, 100% = 0.1% Triton X-100): 0.1%; MHC (minimal peptide concentration that produces haemolysis) ([20]; 4% (v/v) hRBCs in PBS, 1 h at 37 °C, absorbance 405 nm, printed in both Gram-negative and Gram-positive sections): 400 µM |
